The text below walks through data of US10240133B2, “ERK-derived peptides and uses thereof” (Yeda Research and Development Co. Ltd., priority 2013, dated 2019).

Entries after “also recorded” stand apart in the source; their conditions may differ.

What all share (assay type): cell-based
One experiment concerns JNK2 and p38. The experiment in a line: Nuclear translocation of other MAPKs (fluorescence microscopy). To be noted: HeLa cells; TPA or anisomycin. On the procedure: HeLa cells were serum-starved, pretreated with the EPE or Scr peptides, and then stimulated with either TPA (250 nM, 15 min), anisomycin (Anis, 10 μg/ml, 15 min) for the indicated times, or left untreated as control (NT). The cells were stained with αp38 or αgJNK Abs and DAPI. Scale bar—15 μm. (B) Extracts from cells treated as in A were analyzed by Western blotting with the indicated Abs.
Cells were fixed in 3% paraformaldehyde in PBS (20 min, 23° C.), and then permeabilized and blocked with 0.2% Triton X-100 in PBS-BSA (2%) for 20 min at 23° C. The fixed cells were sequentially incubated with appropriated Abs, (diluted in 10 μg/ml BSA/PBS) for 1 h, followed by either Cy-2 or rhodamine-conjugated secondary Abs and DAPI (diluted in BSA/PBS, 1:200) for 1 h. To follow the subcellular localization of the biotin-conjugated peptides, cells were incubated with Avidin-FITC (diluted in BSA/PBS 1:400) and DAPI. Slides were analyzed and photographed by a fluorescent microscope (Nikon, Japan, 600× magnification).

The next experiment has as its system RSK. The experiment in a line: Western blotting of RSK phosphorylation. To be noted: four distinct cell lines. On the procedure:
(A) EPE peptide prevents ERK1/2-importin7 interaction. HeLa cells were serum starved (0.1%, 16 hours), pretreated with EPE peptide, scrambled peptide (10 μM, 2 hours) or DMSO, and then stimulated with TPA (250 nM, 15 min). ERK1 were precipitated with αgERK1 Ab; importin7 co-immunoprecipitated with ERK1 was detected by WB with αimportin7 Ab. […] T47D, HeLa, MDA-MB-231 and A2352 cells were serum starved (0.1%, 16 hours), pretreated with EPE peptide, scrambled peptide (10 μM, 2 hours) or DMSO control, and then stimulated with TPA (250 nM, indicated times). Cell extracts were subjected to Western blot analysis with the indicated Abs. (C) EPE peptide inhibits phosphorylation of c-Myc and Elk1 in B-Raf melanomas. A2158 and A2352 cells were treated with scrambled and EPE peptide for two hours and then stimulated with the indicated concentration of TPA for 30 min. […] (D) Quantification of some of the results in B and C. […]
(i) Preparation of cellular extracts for Western Blotting: Cells were rinsed twice with ice-cold PBS and scraped into Radio-immunoprecipitation assay buffer (RIPA; 137 mM NaCl, 20 mM Tris (pH 7.4), 10% glycerol, 1% Triton X-100, 0.5% deoxycholate, 0.1% SDS, 2 mM EDTA, 1 mM PMSF, and 20 μM leupeptin). The extracts were centrifuged (20,000×g, 15 min, 4° C.), and the supernatants were further analyzed by Western blotting. […]

Another experiment concerns B-Raf melanoma cells. The experiment can be described thus: Morphology assay (light microscopy). To be noted: 10 μM. As to the method:
(§1) FIGS. 5A-5D illustrate that the EPE peptide leads to apoptosis of B-Raf mutant cancer cells. (A) The EPE peptide affects the morphology of treated cells. The indicated cells were treated with either the EPE or Scr peptides, DMSO, or taxol for 72 h, and photographed by a light microscope. (B) The EPE peptide induces apoptosis in melanoma cells detected by TUNEL. The indicated cell lines were treated as in A for 24 h. Apoptosis was detected by TUNEL staining. Images were obtained by florescence microscope. (C) Quantification of B. The bar-graph represents percent of apoptotic cells calculated in 10 different fields. (D) The EPE peptide induces apoptosis of melanoma cells detected by PARP cleavage. The indicated cell lines were treated as in (A) for 24 h. Cell extracts were subjected to Western blotting with αPARP Ab.
(§2) Cells were seeded on glass cover slips in a 12-wells plate at 25% confluence with medium containing 1% of FCS. Peptides (EPE or Scr), DMSO, or U0126 in a final concentration of 10 μM, were added after 4 h (considered as time “0”). TUNEL staining was performed at 24 h after the treatment according to manufacturer instruction (Roche Applied Science, Nutley, N.J., USA). Briefly, the medium was removed and cells were fixed with 3% of paraformaldehyde (1.5 h, 23° C.). Cells were rinsed twice with PBS and permeabilized with 0.1% Triton X-100 and 0.1% sodium citrate for 2 min on ice. Cells were rinsed twice with PBS and 28 μl of TUNEL reaction mixture (25 μl of TUNEL label, 2.5 μl of TUNEL enzyme and 0.1 mg/ml of DAPI) was added directly on top of the slide, cells were incubated for 16 h in humid box at 37° C. Cover slips were rinsed three times with PBS and mounted on microscope slides. The slides were dried and then subjected to image acquisition by a florescence microscope. For morphology assay, the cells were seeded at approximately 25% confluence in 6 cm plates with medium containing 1% FCS. Peptides (EPE and Scr) or DMSO or U0126 in a final concentration of 10 μM, were added after 4 h (considered to be time 0), 24 h and 48 h. […]

A further experiment deals with most cell lines examined. The experiment can be described thus: Morphology assay (light microscopy). To be noted: 10 μM. On the procedure: as §1, §2

Turning to “GQLNHILGILGEPEQED (Synthetic peptide (EPE)) [EPE peptide, NTS-derived peptide with phosphomimetic EPE motif]”, in the experiment on JNK2 and p38, the “translocation of other MAPKs (JNK2, p38)” value is “affected neither the translocation of other MAPKs; also recorded: does not affect the nuclear translocation of JNK2 and p38”. The “downstream activity of RSK” value with RSK is on record as “no effect”. Moreover, the cell morphology entry in the experiment with B-Raf melanoma cells is given as “inducing cell-break already 24 hours after treatment”; with most cell lines examined it was “no effect”.
